In US4552888A, “Ascorbic acid ethers in angiogene” (Eli Lilly and Company, priority 1983, dated 1985):
Read-outs that look alike come from different tables or passages of the source. One block for each compound: values may come before it.

Legend:
pKa by titration = type: physicochemical; conditions: for pKa: read-out: pKa
[1] = tested on: paw swelling caused by Type II collagen; assay: Collagen arthritis assay (type II collagen-induced paw swelling); type: in vivo, inbred Lewis male rats; conditions: for decrease in paw swelling caused by collagen Type II injection: 15 mg./kg. per os
Description: This test method is a collagen arthritis assay carried out as follows. Type II collagen is isolated from bovine articular cartilage by the method of […] and Nimni [Biochemistry, 10, 3905, (1971)]. The collagen is dissolved in 0.1M acetic acid and stored at -20°. Type II collagen solution is diluted to 2 mg./ml. concentration and emulsified thoroughly with an equal volume of incomplete Freund's adjuvant (ICFA). The emulsion containing approximately 0.5 mg. of collagen is injected intradermally to groups of 6 inbred Lewis male rats (Charles River Breeders; 170-200 g.) at various sites in the dorsal area. The hindpaw volumes of each rat is measured and recorded three times a week throughout the test period to assess the inflammatory reaction. The animals receive compounds under test as suspensions in carboxymethylcellulose vehicle, by oral gavage, 5 days per week (Mon.-Fri.). At the end of the test (day 28 or 30), the blood of these animals is drawn by cardiac puncture and the serum anti-type II collagen antibody levels are estimated by passive hemagglutination technique, using glutaraldehyde treated sheep red cells, to which type II collagen is conjugated [[…] et al., Immunochemistry, 6, 67,1969); Andriopoulos et al., Arth. Rheum., 19, 613, (1976)]. The cellular response or delayed-type hypersensitivity response to type II collagen is measured by the radiometric ear index assay (Kostiala, Immunology, 33, 561, 1977). In certain experiments, the bone damage occurring because of immunization with type II collagen and the effects of drugs are determined from the radiographs of the hindpaws of two or three representative animals from each group. Injections of ICFAs alone were employed to some rats as a negative control.

angiogenesis factor = assay: Inhibition of angiogenesis factor (3683 Morris hepatoma lysosomal-mitochondrial pellet) induced serpentine vessels in mice; type: in vivo, mice (SPF/ND4 female); conditions: Mus musculus, ip; for inhibition in vivo at 25 mg/kg: i.p., 24 hours
Description: Lysosomal-mitochondrial pellets containing angiogenesis factor are prepared from 3683 Morris hepatoma. The pellet is diluted with 7-8 ml. of 15% ficoll. With this dilution, 8-10 serpentine vessels will be produced per 0.2 cc. injection as described below for the control group.
Next, 15 SPF/ND4 female mice weighing 20-22 g. are shaved on the left side and then divided into three groups of five each. One group (drug group) is injected subcutaneously and laterally with 0.20 cc. of the lysosomal-mitochondrial preparation diluted with 15% ficoll. This group of mice is then dosed individually by the intraperitoneal route with 0.5 cc. of a solution or suspension in a standard vehicle containing the compound under test, usually at an initial dose level of 300 mg./kg. If this dose level is toxic, two-fold dilutions are made until all mice survive a single dose. The second group of mice (control group) is injected subcutaneously and laterally with 0.2 cc. of the lysosomal-mitochondrial suspension diluted with 15% ficoll and dosed intraperitoneally with 0.5 cc. of the vehicle alone. The third group (negative control) is injected with ficoll solution only (no treatment with drug or vehicle). The mice are sacrificed after 24 hours. Each mouse is placed on its side on a dissecting board with the shaved side up. Starting at the flank, the skin is cut straight to the back of the animal. A similar cut is made behind the front leg. Then the skin is cut along the back making a flap of about one inch by two inches. The skin is carefully separated from the connective tissue using forceps and a scalpel. The skin flap is then laid back exposing the lysosomal-mitochondrial implant which is attached to the skin. The skin flap is gently flattened out and with the use of a binocular dissecting scope, serpentine vessels are observed around the lysosomal-mitochondrial implant and their number counted. All observations of the number of serpentine vessels are made at the same power of the microscope (1X). The average number of serpentine vessels for each group is calculated. The percent inhibition is then calculated according to the following equation. [formula] where sv=average number of serpentine vessels.
If the negative control group described above has any serpentine vessels, the test is invalid due to contamination of the ficoll solution.
Table I covers compounds according to formula I above in which R^2 and R^3 are both H, table II covers compounds in which R^2 and R^3 form a 1-methylethylidene group, and Table III compounds in which R^2 plus R^3 equal a benzylidene group or other group.
One of the compounds of this invention, 3-O-n-octadecyl-5,6-O-(1-methylethylidene)-L-ascorbic acid was tested at a series of dose levels for its ability to inhibit tumor angiogenesis and the results of these tests are set forth in Table IV.

Vitamin C activity = conditions: orally in aqueous solution; Bezssonoff and Sacrez 1937; cited from earlier work
Morris hepatoma (5123D) = assay: Growth/induction of transplanted Morris hepatoma (5123D) in ICFA-treated rats; type: in vivo; conditions: 10-100 mg. once or twice a day orally
Description: Another laboratory test involving angiogenesis or neovascularization is based on the time period required for a differentiated tumor to become undifferentiated (vascularized). An inflammatory response enhances tumor growth and reduces the lag phase. In this test, rats are injected with a test drug (30 minutes prior to dosing) with ICFA (incomplete Freund's adjuvant) plus India ink intradermally in a shaved area on a rat's back, thus providing a marked injection site. After 3 days of twice daily administration of the test drug followed 30 minutes later by administration of ICFA, the tumor is transplanted on the periphery of the marked injection site. The animals are weighed and the tumor size determined (length+width/2) at weekly intervals for 4 weeks. Morris hepatoma (5123D) was used as the […] tumor.
0.5 cc. of ICFA were also given once or twice daily subcutaneously to each test rat.

[2] = tested on: Madison (M109) lung carcinoma; assay: Madison lung metastasis assay; type: in vivo, male BALB/C mice
Description: In addition, the compounds of this invention have found utility as angiogenesis inhibitors in metastatis formation. Such activity has been found in an artificial metastasis model using Madison lung (M 109) carcinoma which metastasizes preferentially to lungs and is not overly sensitive to chemotherapeutic agents. The test is carried out as follows.
The Madison (M109) lung carcinoma is carried as a transplantable line in syngeneic BALB/C mice. This tumor line was obtained from the tumor bank at Mason Research Institute, Worcester, Mass. For tumor metastasis studies, a subcutaneously-grown tumor is aseptically excised, minced into small pieces with a scissors, and gently trypsinized at room temperature to obtain a single cell suspension. The cells are suspended in RPMI-1640 medium (M. A. Bioproducts, Walkersville, MD). Viable M109 cells are determined by trypan blue exclusion, and the cell concentration is determined with a hemocytometer. The cells are adjusted to 1×10^5 viable cells/ml. of medium. M109 cells are injected i.v. into normal, male BALB/C mice. Inoculum volume per mouse is 0.2 ml. (2×10^4 cells). Drugs are administered i.p. to randomized groups of 10 mice 2 days prior to tumor cell inoculation. Controls receive mock injections of 0.5 ml. buffer. Daily mortality is monitored, and median survival times are determined for each group. Cytoxan was employed as a positive control. In the Table, column 1 gives drug treatment and columns 2 and 3 measures number of lesions±standard error per lung on days 30 and 42.
The growth rate and number of lung metastases in the above experiment were less than usual. A new transplant line was employed in a second determination with lung lesions developing earlier. Table 6 records the results of this experiment; here ascorbic acid was employed as the control drug.

[3] = tested on: proline hydroxylation in scorbutic granulomas; conditions: in vitro; Rokosova and Chvapil 1974; cited from earlier work
scorbutic guinea pigs = conditions: added to the diet of scorbutic guinea pigs; Gould et al. 1949; cited from earlier work
[4] = tested on: lung metastases and B16 melanoma; conditions: mice; Folkman and Taylor; cited from earlier work
[5] = oral 50 mg./kg., one experiment
[6] = Table 6, 16 day, new transplant line, 100 mg./kg., Emulphor control 69.8 ± 10.4

titratable group (pKa by titration): No titratable groups
Compound: CC1(C)OC[C@@H]([C@H]2OC(=O)C(OCc3ccc(C#N)cc3)=C2OCc2ccc(C#N)cc2)O1 [2,3-bis(O-4-cyanobenzyl)-5,6-O-(1-methylethylidene)-L-ascorbic acid]
decrease in paw swelling caused by collagen Type II injection [1]: substantial decreases in paw swelling
inhibition in vivo at 25 mg/kg (angiogenesis factor; 24 h, Table 2, read-out: % inhibition (serpentine vessels)): 36 to 91%

Compound: CCCCCCCCCCCCCCCCCCOC1=C(OCCCCCCCCCCCCCCCCCC)[C@@H]([C@@H](O)CO)OC1=O [2,3-di-(-O-n-octadecyl)-L-ascorbic acid]
decrease of paw volumes ([1]; 12.5 and 25 mg./kg.): 33-67%
inhibition in vivo at 25 mg/kg (angiogenesis factor; 24 h, Table 1, read-out: average % inhibition (serpentine vessels)): 52%

Compound: COC1=C(OC)C(C(O)CO)OC1=O (centres unmarked) [2,3-dimethylascorbic acid]
Vitamin C activity (Vitamin C activity): devoid of Vitamin C activity

Compound: O=C1O[C@H]([C@@H](O)CO)C(OCc2cccc(C(F)(F)F)c2)=C1O [3-O-(3-trifluoromethylbenzyl)-L-ascorbic acid]
paw volumes vs ICFA controls ([1]; 25 mg./kg.): substantially the same as ICFA controls

pKa (pKa by titration): 10.4
Compound: CC1(C)OC[C@@H]([C@H]2OC(=O)C(O)=C2OCCCCC#N)O1 [3-O-(4-cyanobutyl)-5,6-O-(1-methylethylidene)-L-ascorbic acid]
decrease in paw swelling caused by collagen Type II injection [1]: substantial decreases in paw swelling

Compound: CCCCCCCCCCCCCCCCCOC1=C(O)C(=O)O[C@@H]1[C@@H](O)CO [3-O-n-heptadecyl-L-ascorbic acid]
decrease in paw swelling caused by collagen Type II injection [1]: substantial decreases in paw swelling

pKa (pKa by titration): 11.4
Compound: CCCCCCCCCCCCCCCCCCOC1=C(O)C(=O)O[C@@H]1[C@@H]1COC(C)(C)O1 [3-O-n-octadecyl-5,6-O-(1-methylethylidene)-L-ascorbic acid]
paw volumes vs negative control levels ([1]; 50 mg./kg., other runs): indistinguishable from negative control levels
inhibition of the swelling of the paw [1, 5]: about 50%
inhibition in vivo at 30 mg/kg (angiogenesis factor; Table 4, intraperitoneal dose 30 mg./kg., individual results): 58%
inhibition in vivo at 120 mg/kg (angiogenesis factor; Table 4, intraperitoneal dose 120 mg./kg., individual results): 66%
inhibition in vivo at 240 mg/kg (angiogenesis factor; Table 4, intraperitoneal dose 240 mg./kg., individual results): 71%

Compound: CCCCCCCCCCCCCCCCCCOC1=C(O)C(=O)O[C@@H]1[C@@H](O)CO [3-O-n-octadecyl-L-ascorbic acid]
growth of the undifferentiated tumor (Morris hepatoma (5123D); alternative outcome to delayed induction): inhibited the growth of the undifferentiated tumor
delay of tumor induction (Morris hepatoma (5123D); alternative outcome to growth inhibition): 4 to 7 days
Mean No. of Lesions ± S.E./Lung ([2]; Table 5, Day 30, 35 mg./kg. i.p., Emulphor control 15.8 ± 4.6): 1.8 ± 1.2 Lesions/Lung
Mean No. of Lesions ± S.E./Lung ([2]; Table 5, Day 42, 35 mg./kg. i.p., Emulphor control 20.6 ± 1.8): 18.6 ± 1.3 Lesions/Lung
Mean No. of Lesions ± S.E./Lung ([2]; Table 6, 16 day, new transplant line, 30 mg./kg., Emulphor control 69.8 ± 10.4): 10.7 ± 3.4 Lesions/Lung
Mean No. of Lesions ± S.E./Lung [2, 6]: 13.0 ± 5.1 Lesions/Lung
decrease of paw volumes ([1]; 12.5 mg./kg.): about 25%
paw volumes vs controls ([1]; 17.5 mg./kg.): indistinguishable from controls
decrease of paw volume vs positive controls (collagen, no drug) ([1]; 50 mg./kg., other runs): 90-100%
paw volumes vs ICFA-treated rats (negative controls) [1, 5]: not substantially different from those of the ICFA-treated rats

Compound: COC1=C(O)C(=O)O[C@@H]1[C@@H](O)CO [3-methylascorbic acid]
stimulation of proline hydroxylation [3]: had an effect in vitro
vitamin C activity relative to ascorbic acid (scorbutic guinea pigs): about 1/50
Vitamin C activity (Vitamin C activity): active

pKa (pKa by titration): 6.1
Compound: CC1(C)OC[C@@H]([C@H]2OC(=O)C(O)=C2O)O1 [5,6-O-(1-methylethylidene)-L-ascorbic acid]
inhibition in vivo at 10 mg/kg (angiogenesis factor; 24 h, Table 2, dose 10 mg./kg.): 48%

Compound: CCCCCCCCCCC1(C)OC[C@@H]([C@H]2OC(=O)C(O)=C2O)O1 (stereo partly drawn) [5,6-O-(1-n-decylethylidene)-L-ascorbic acid]
decrease in paw swelling caused by collagen Type II injection [1]: substantial decreases in paw swelling

Compound: O=P1(N(CCCl)CCCl)NCCCO1 (centres unmarked) [Cytoxan, reference compound]
Mean No. of Lesions ± S.E./Lung ([2]; Table 5, Day 30, 30 mg./kg. i.p. every 4th day starting on day 12, Emulphor control 15.8 ± 4.6): 8.4 ± 1.5 Lesions/Lung

Compound: O=C1O[C@H]([C@@H](O)CO)C(O)=C1O [ascorbic acid]
Mean No. of Lesions ± S.E./Lung [2, 6]: 33.8 ± 9.6 Lesions/Lung

Compound: protamine
inhibition of lung metastases and B16 melanoma [4]: inhibited lung metastases and B16 melanoma in mice
